Patent US20220348590A1, “CYCLOOXYGENASE-2 INHIBITORS AND USES THEREOF” (The Board Institute, Inc., priority 2019, published 2022)
Read-outs that look alike come from different tables or passages of the source.

Target: T1, human recombinant COX2 (hCOX2) (UniProt P35354)
T1 sequence (P35354 1-604): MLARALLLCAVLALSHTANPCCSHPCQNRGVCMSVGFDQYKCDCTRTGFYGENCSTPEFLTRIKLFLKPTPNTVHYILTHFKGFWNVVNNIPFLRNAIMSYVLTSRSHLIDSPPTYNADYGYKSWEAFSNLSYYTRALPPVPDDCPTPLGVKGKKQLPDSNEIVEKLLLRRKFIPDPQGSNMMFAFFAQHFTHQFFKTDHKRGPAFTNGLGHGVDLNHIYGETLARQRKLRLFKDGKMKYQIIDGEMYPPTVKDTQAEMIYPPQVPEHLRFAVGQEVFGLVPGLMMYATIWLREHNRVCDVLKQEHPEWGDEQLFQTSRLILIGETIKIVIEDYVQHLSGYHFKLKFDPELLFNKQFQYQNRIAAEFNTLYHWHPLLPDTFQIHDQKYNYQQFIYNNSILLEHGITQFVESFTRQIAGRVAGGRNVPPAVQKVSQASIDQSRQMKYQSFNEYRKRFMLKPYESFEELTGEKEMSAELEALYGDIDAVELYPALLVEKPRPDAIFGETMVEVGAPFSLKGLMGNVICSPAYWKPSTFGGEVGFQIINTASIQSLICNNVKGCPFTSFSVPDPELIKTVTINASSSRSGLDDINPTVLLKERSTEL
Assay: LCMS-based COX2 enzymatic inhibition assay (PGE2 quantification)
Type: biochemical
Parameters: COX2 2 minutes pge2/pge2d4 area ratio Avg; other: 2 minutes; readout pge2/pge2d4 area ratio; average; COX2 2 minutes pge2/pge2d4 area ratio Avg; LLE; average LLE; COX2 2 minutes pge2 area (counts) Avg; readout pge2 area (counts); other: 2 min; "ovine COX2 (oCOX2), human recombinant COX2 (hCOX2)"
Settings: for COX2 2 minutes pge2/pge2d4 area ratio Avg. LLE / COX2 2 minutes pge2 area (counts) Avg. LLE / COX2 10 minutes pge2 area (counts) Avg. LLE: average LLE; for IC50: average
In short: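 Ovine COX-1 (0.1 μg) or human recombinant COX2 (0.2 μg) in 100 mM Tris.HCl pH 8.0 with hematin and epinephrine, preincubated with inhibitor 10 min at 37 °C. Reaction with 5 μM arachidonic acid stopped after 2 min with HCl; PGE2 quantified by LC-MS-MS. IC50 from 12 concentrations in triplicate.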

[1] = 2 minutes, readout pge2/pge2d4 area ratio
[2] = 2 minutes, readout pge2/pge2d4 area ratio, read-out: COX2 2 minutes pge2/pge2d4 area ratio Avg. IC50
[3] = 2 minutes, readout pge2 area (counts)
[4] = 2 minutes, readout pge2 area (counts), read-out: COX2 2 minutes pge2 area (counts) Avg. IC50
[5] = 10 minutes, readout pge2 area (counts)
[6] = 10 minutes, readout pge2 area (counts), read-out: COX2 10 minutes pge2 area (counts) Avg. IC50
[7] = read-out: COX2 2 minutes pge2/pge2d4 area ratio Avg. IC50 (microM), 2 minutes, readout pge2/pge2d4 area ratio

| Compound | COX2 2 minutes pge2/pge2d4 area ratio Avg. LLE [1] | IC50 [2] | COX2 2 minutes pge2 area (counts) Avg. LLE [3] | IC50 [4] | COX2 10 minutes pge2 area (counts) Avg. LLE [5] | IC50 [6] | IC50 [7] | IC50 (read-out: COX2 2 minutes pge2/pge2d4 area ratio Avg. IC50 (microM), 2 minutes, readout pge2/pge2d4 area ratio, 2 min) |
| --- | --- | --- | --- | --- | --- | --- | --- | --- |
| CN1CCN(c2cncc(-c3ccc(S(C)(=O)=O)cc3)n2)CC1 [Compound 287] | 5.044 |  | 5.044 |  | 5.574 | 1.54 µM | 5.2 µM |  |
| CS(=O)(=O)c1ccc(-c2cncc(NCc3cnco3)n2)cc1 [Compound 215] | 4.859 | 1.53 µM | 4.845 | 1.58 µM |  |  |  |  |
| CS(=O)(=O)c1ccc(-c2cccc(C[C@H](O)c3cccs3)n2)cc1 [Compound 300] |  |  |  |  |  |  | 5.2 µM |  |
| CS(=O)(=O)c1ccc(-c2cncc(NCc3ccoc3)c2)cc1 [Compound 174] |  | 0.484 µM |  | 0.481 µM |  |  |  |  |
| CS(=O)(=O)c1ccc(-c2ccc3c(ncn3Cc3cccs3)n2)cc1 [Compound 308] |  |  |  |  |  |  | 5.2 µM |  |
| CS(=O)(=O)c1ccc(-c2ccnc(NCc3ccco3)c2)cc1 [Compound 283] |  |  |  |  |  |  | 5.2 µM |  |
| COc1ncc(OCc2ccoc2)nc1-c1ccc(S(C)(=O)=O)cc1 [Compound 22] | 5.719 | 0.0112 µM | 5.729 | 0.0112 µM |  |  |  |  |
| CS(=O)(=O)c1ccc(-c2cccc(C3CC3c3ccoc3)n2)cc1 (single isomer, unassigned) [Compound 322, 2-[2-(furan-3-yl)cyclopropyl]-6-(4-methanesulfonylphenyl)pyridine] |  |  |  |  |  |  |  | 5.2 µM |
| CS(=O)(=O)c1ccc(-c2cncc(OCc3nccs3)c2)cc1 [Compound 289] | 2.234 |  | 2.234 |  |  |  | 5.2 µM |  |
| CS(=O)(=O)c1ccc(-n2ccc3ccc(/C(=N/O)c4cccs4)nc32)cc1 [Compound 195] |  | 0.885 µM |  | 0.969 µM |  |  |  |  |
| CS(=O)(=O)c1ccc(-c2cccc(NCc3ccn[nH]3)n2)cc1 [Compound 264] | 2.63 | 4.62 µM | 2.705 | 4.13 µM |  |  |  |  |
| CS(=O)(=O)c1ccc(-c2cncc(SCc3cnoc3)n2)cc1 [Compound 213] | 4.567 | 1.5 µM | 4.663 | 1.32 µM |  |  |  |  |
| CS(=O)(=O)c1ccc(-c2coc3ccc(NCc4ccoc4)nc23)cc1 [Compound 55] |  | 0.0305 µM |  | 0.0265 µM |  |  |  |  |
| CS(=O)(=O)c1ccc(-c2cncc(N3Cc4ccncc4C3)n2)cc1 [Compound 304] |  |  |  |  |  |  | 5.2 µM |  |
| C[C@H](Nc1cccc(-c2ccc(S(C)(=O)=O)cc2)n1)c1ccco1 (single isomer, unassigned) [Compound 89] | 3.84 | 0.0656 µM | 3.875 | 0.06 µM |  |  |  |  |
| CS(=O)(=O)c1ccc(-n2ccc3ccc([C@@H](O)c4cccs4)nc32)cc1 (single isomer, unassigned) [Compound 209] |  | 1.34 µM |  | 1.44 µM |  |  |  |  |
| CS(=O)(=O)c1ccc(-c2cncc(OCc3ccc(Cl)o3)n2)cc1 [Compound 212] | 2.9422 | 1.47 µM | 2.889 | 1.66 µM |  |  |  |  |
| C[S+]([O-])c1ccc(-c2cccc(OCc3cccs3)n2)cc1 (centres unmarked) [Compound 157] | 3.382 | 0.35 µM | 3.281 | 0.428 µM |  |  |  |  |
| Cn1ccc(CNc2cccc(-c3ccc(S(C)(=O)=O)cc3)n2)c1 [Compound 108] | 3.847 | 0.0945 µM | 3.926 | 0.0799 µM |  |  |  |  |
| CS(=O)(=O)c1ccc(-c2cc(OCc3cccs3)ncn2)cc1 [Compound 318] |  |  |  |  |  |  | 5.2 µM |  |
| CS(=O)(=O)c1ccc(-c2cccc(Nc3ccccc3)n2)cc1 [Compound 194] | 2.607 | 0.883 µM | 2.538 | 1.04 µM |  |  |  |  |

The next lines start with results.

| COX2 2 minutes pge2/pge2d4 area ratio Avg. LLE [1] | IC50 [2] | COX2 2 minutes pge2 area (counts) Avg. LLE [3] | IC50 [4] | Compound | COX2 10 minutes pge2 area (counts) Avg. LLE [5] | IC50 [6] | IC50 [7] | IC50 (read-out: COX2 2 minutes pge2/pge2d4 area ratio Avg. IC50 (microM), 2 minutes, readout pge2/pge2d4 area ratio, 2 min) |
| --- | --- | --- | --- | --- | --- | --- | --- | --- |
| 4.502 | 0.0188 µM | 4.487 | 0.0207 µM | Cc1cocc1CNc1cccc(-c2ccc(S(C)(=O)=O)cc2)n1 [Compound 40] |  |  |  |  |
|  | 5.2 µM |  |  | CS(=O)(=O)c1ccc(-c2cc(NCc3ccco3)ncn2)cc1 [Compound 277] |  |  |  |  |
| 3.605 | 0.234 µM | 3.637 | 0.229 µM | CS(=O)(=O)c1ccc(-c2cnc(C(F)(F)F)c(NCc3cccs3)n2)cc1 [Compound 144] |  |  |  |  |
| 3.357 | 0.0867 µM | 3.332 | 0.0772 µM | CS(=O)(=O)c1ccc(-c2nc(OCc3cccs3)ccc2F)cc1 [Compound 101] |  |  |  |  |
| 3.07 | 1.25 µM | 3.131 | 1.06 µM | CS(=O)(=O)c1ccc(-c2cccc([C@@H](O)Cc3cccs3)n2)cc1 [Compound 205] |  |  |  |  |
| 4.364 | 0.447 µM | 4.345 | 0.452 µM | CS(=O)(=O)c1ccc(-c2nncc(NCc3cccs3)n2)cc1 [Compound 171] |  |  |  |  |
| 4.751 | 0.0888 µM | 4.838 | 0.0733 µM | Cc1ncc(NCc2cccs2)nc1-c1ccc(S(C)(=O)=O)cc1 [Compound 103] |  |  |  |  |
| 3.8683 | 1.32 µM | 3.915 | 1.06 µM | CC(=O)c1ncc(-c2ccc(S(C)(=O)=O)cc2)nc1NCc1cccs1 [Compound 207] |  |  |  |  |
| 4.7843 | 0.508 µM | 4.685 | 0.638 µM | CS(=O)(=O)c1ccc(-c2cccc(NCc3ccno3)n2)cc1 [Compound 175] |  |  |  |  |
| 4.977 | 0.197 µM | 4.936 | 0.215 µM | CS(=O)(=O)c1ccc(-c2cncc(NCc3cccs3)n2)c(O)c1 [Compound 137] |  |  |  |  |
| 4.321 | 0.234 µM | 4.37 | 0.217 µM | Cc1ncc(-c2ccc(S(C)(=O)=O)cc2)nc1NCc1cccs1 [Compound 145] | 5.186 | 0.0388 µM |  |  |
| 2.641 | 4.81 µM | 2.624 |  | CS(=O)(=O)c1ccc(-c2nc(NCc3cccs3)ccc2S(C)(=O)=O)cc1 [Compound 265] |  |  |  |  |
| 4.28 | 4.09 µM | 4.347 | 3.49 µM | CS(=O)(=O)c1ccc(-c2nc(NCc3cccs3)cnc2C(N)=O)cc1 [Compound 257] |  |  |  |  |
| 4.957 | 0.202 µM | 4.957 | 0.198 µM | CS(=O)(=O)c1ccc(-c2cncc(OCc3cncs3)n2)cc1 [Compound 138] |  |  |  |  |
| 4.216 | 1.15 µM | 4.434 | 0.804 µM | CS(=O)(=O)c1ccc(-c2cncc(NCc3nccs3)n2)cc1 [Compound 203] |  |  |  |  |
| 4.517 | 0.0757 µM | 4.626 | 0.0581 µM | CS(=O)(=O)c1ccc(-c2cnc(F)c(NCc3cccs3)n2)cc1 [Compound 97] |  |  |  |  |
| 2.321 | 0.32 µM | 2.324 | 0.317 µM | CS(=O)(=O)c1ccc(-c2ccc3ncn(Cc4cccs4)c3n2)cc1 [Compound 155] |  |  |  |  |
| 4.221 | 4.26 µM | 4.307 | 2.35 µM | COc1ncc(-c2ccc(S(C)(=O)=O)cc2)nc1NCc1ccccn1 [Compound 260] |  |  |  |  |
